Test results from patent US11896573B2, “Pharmaceutical compositions and pharmacokinetics of a gamma-hydroxybutyric acid derivative” (priority 2020, dated 2024).
Values joined by “and” are separate entries in the source; they are usually repeats but may differ in a detail not shown here. Equal entries are not always repeated. Where two headings read alike, the source gives them in different places.

Key:
[1] = Food effect and relative bioavailability crossover study, Compound (1) vs sodium oxybate; settings: 7.25 g Compound (1) oral; for AUC(0-inf) / AUC(0-t) / Cmax / half-life / Tmax: human, plasma, po, 7.25 g; for AUC(0-inf): Compound (1) plasma AUC0-inf; for Tmax: Compound (1) plasma Tmax
Throughout, for Purity (Area %): time not given here.

With CC(C)[C@H](N)C(=O)OCCCC(=O)O [Compound (1), 4-((L-valyl)oxy)butanoic acid] the “plasma Compound (1) AUC0-tlast, Adjusted Geometric Mean Ratio (Fed vs Fasted)” value [1] was 1.28, the “plasma Compound (1) Cmax, Adjusted Geometric Mean Ratio (Fed vs Fasted)” value [1] was 0.65 and the “Compound (1) plasma AUC0-inf, Max” value ([1]; Fasted) was 30800 ng·h/mL. For the same molecule, the “Compound (1) plasma AUC0-inf, Min” value ([1]; Fasted) was 9500 ng·h/mL, the “Compound (1) plasma AUC0-tlast, Max” value ([1]; Fasted) was 36100 ng·h/mL and the “Compound (1) plasma AUC0-tlast, Min” value ([1]; Fasted) was 9400 ng·h/mL. The “Compound (1) plasma Cmax, Max” value ([1]; Fasted) was 43600 ng/mL, the “Compound (1) plasma Cmax, Min” value ([1]; Fasted) was 9400 ng/mL and the “Compound (1) plasma T1/2, Max” value ([1]; Fasted) was 114 min. For the same molecule, the “Compound (1) plasma T1/2, Min” value ([1]; Fasted) was 16.2 min, the “Compound (1) plasma AUC0-inf, Max” value ([1]; Fed) was 39000 ng·h/mL and the “Compound (1) plasma AUC0-inf, Min” value ([1]; Fed) was 16000 ng·h/mL. The “Compound (1) plasma AUC0-tlast, Max” value ([1]; Fed) was 38600 ng·h/mL, the “Compound (1) plasma AUC0-tlast, Min” value ([1]; Fed) was 15900 ng·h/mL and the “Compound (1) plasma Cmax, Max” value ([1]; Fed) was 27800 ng/mL. For the same molecule, the “Compound (1) plasma Cmax, Min” value ([1]; Fed) was 5500 ng/mL, the “Compound (1) plasma T1/2, Max” value ([1]; Fed) was 69 min and the “Compound (1) plasma T1/2, Min” value ([1]; Fed) was 16.2 min. The “Compound (1) plasma Tmax, Max” value ([1]; Fed) was 90 min, the AUC(0-inf) ([1]; Mean, Fasted) was 22400 ng·h/mL and the AUC(0-inf) ([1]; Mean, Fed) was 29000 ng·h/mL. The AUC(0-inf) ([1]; Median, Fasted) was 20400 ng·h/mL, the AUC(0-inf) ([1]; Median, Fed) was 29100 ng·h/mL and the AUC(0-t) ([1]; Compound (1) plasma AUC0-tlast, Mean, Fasted) was 23900 ng·h/mL. It also gave an AUC(0-t) ([1]; Compound (1) plasma AUC0-tlast, Mean, Fed) of 28800 ng·h/mL, an AUC(0-t) ([1]; Compound (1) plasma AUC0-tlast, Median, Fasted) of 22500 ng·h/mL and an AUC(0-t) ([1]; Compound (1) plasma AUC0-tlast, Median, Fed) of 29000 ng·h/mL. It also gave a Cmax ([1]; Compound (1) plasma Cmax, Mean, Fasted) of 27700 ng/mL, a Cmax ([1]; Compound (1) plasma Cmax, Mean, Fed) of 18100 ng/mL and a Cmax ([1]; Compound (1) plasma Cmax, Median, Fasted) of 27300 ng/mL. It also gave a Cmax ([1]; Compound (1) plasma Cmax, Median, Fed) of 17300 ng/mL, a half-life ([1]; Compound (1) plasma T1/2, Mean, Fasted) of 32.4 min and a half-life ([1]; Compound (1) plasma T1/2, Mean, Fed) of 38.4 min. For the same molecule, the half-life ([1]; Compound (1) plasma T1/2, Median, Fasted) was 21 min, the half-life ([1]; Compound (1) plasma T1/2, Median, Fed) was 35.4 min and the Tmax ([1]; Median, Fasted) was 45 min. It also gave a Tmax ([1]; Median, Fed) of 30 min, an AUC(0-t) ([1]; plasma Compound (1) AUC0-tlast, Adjusted Geometric Mean, Fasted) of 21000 ng·h/mL and an AUC(0-t) ([1]; plasma Compound (1) AUC0-tlast, Adjusted Geometric Mean, Fed) of 27000 ng·h/mL. The Cmax ([1]; plasma Compound (1) Cmax, Adjusted Geometric Mean, Fasted) was 25400 ng/mL, the Cmax ([1]; plasma Compound (1) Cmax, Adjusted Geometric Mean, Fed) was 16500 ng/mL and the “Purity (Area %)” value (pH 1.2) was 99.25 Area % and 99.22 Area % and 98.95 Area %. The “Purity (Area %)” value (pH 4.5) was 99.25 Area % and 99.05 Area % and 98.35 Area %, the “Purity (Area %)” value (pH 6.8) was 99.08 Area % and 97.58 Area % and 93.14 Area % and the “Purity (Area %)” value (pH 7.4) was 98.84 Area % and 95.74 Area % and 87.89 Area %.
